Consider one compound from BindingDB's records for doi:10.1021/acs.jmedchem.9b01152 (Universidad De Navarra, 2020).

In the experiment the target is Histone deacetylase 8 (Homo sapiens) (UniProt Q9BY41). Kind of experiment: Inhibition of human recombinant HDAC8 using RHKAcKAc-AMC substrate by fluorescence based assay.
Histone deacetylase 8 (Homo sapiens), sequence (Q9BY41 whole entry, looked up): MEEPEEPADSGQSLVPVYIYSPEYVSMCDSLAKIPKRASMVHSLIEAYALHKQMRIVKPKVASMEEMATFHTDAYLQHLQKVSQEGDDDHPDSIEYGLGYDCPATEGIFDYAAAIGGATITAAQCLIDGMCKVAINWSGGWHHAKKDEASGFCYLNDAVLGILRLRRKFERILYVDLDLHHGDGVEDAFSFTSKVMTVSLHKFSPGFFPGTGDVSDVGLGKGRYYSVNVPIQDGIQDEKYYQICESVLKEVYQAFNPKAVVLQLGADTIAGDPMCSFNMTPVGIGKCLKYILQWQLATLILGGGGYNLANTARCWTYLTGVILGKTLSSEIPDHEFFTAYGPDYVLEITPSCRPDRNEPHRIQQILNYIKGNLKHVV

With `O=c1c2ccccc2[se]n1-c1ccccc1` [2-Phenyl-benzo[d]isoselenazol-3-one], the IC50 is 1.2 µM.
